From patent US4968686A, “Acyclic pyrrolo [2,3-d]pyrimidine analogs as antiviral agents” (The Regents of The University of Michigan, priority 1989, dated 1990)

Key:
[1] = tested on: HCMV; assay: HCMV titer (yield) reduction assay; type: cell-based; settings: Human betaherpesvirus 5; for IC90: Table 1, I90, HFF cells, read-out: HCMV Yield, 90% inhibitory concentration (I90)
Excerpt: (§1) The 148 strain of HSV-1 was used in most experiments and was provided by Dr. T. W. Schafer of Schering corporation. The HF strain of HSV-1 was used in selected experiments and was obtained from Dr. G. H. Cohen, University of Pennsylvania. The Towne strain, plaque-purified isolate Po, of HCMV was a gift of Dr. Mark Stinski, University of Iowa.
HCMV was titered in 24-well cluster dishes which were planted to contain 5×10^4 cells/well, grown as described above. When the cells were 70 to 80% confluent, 0.2 ml of the virus suspension was added per wall and adsorbed as described above. At least three ten-fold dilutions of each preparation were used. Following virus adsorption, the cell sheets were overlayed with 0.5% methocel (4000 CPS) in maintenance medium [MEM(E) with 1.1 gm/liter NaHCO3, 100 units/ml penicillin G, 100 μg/ml streptomycin, and 5% fetal bovine serum]. The cultures were incubated in a humidified atmosphere of 4% CO2 -96% air. Viral foci were visible 5 to 7 days after infection using at least 10-fold magnification. Cells were fixed and stained by a 10-minute exposure to a 0.1% solution of crystal violet in 20% methanol 7 to 12 days after infection. Microscopic foci were enumerated at 20-fold magnification using a Nikon Profile Projector.
For titer reduction analysis, HFF cells were planted as described above in 24-well cluster dishes or in 25 cm^2 flasks. When monolayers were approximately 70% confluent, HCMV was added at a m.o.i. of 0.5 p.f.u. per cell and adsorbed as detailed above. Compounds dissolved in growth medium were added in one or one-half logarithm10 dilutions and incubation continued at 37° C. After 7 to 10 days of incubation, culture dishes or flasks were frozen at […] For titer determination, cells were thawed and then subjected to two more cycles of freezing and thawing at 37° C. Serial, one-logarithm10 dilutions of the final suspension were prepared and inoculated onto new cultures of HFF cells. Titer determination was as detailed above in part (1) (b).
(§2) Dose-response relationships were used to compare drug effects. These were constructed by linearly regressing the percent inhibition of parameters derived in the preceding sections against log drug concentrations. The 50% inhibitory (I50) concentrations were calculated from the regression lines using the methods described by Goldstein. See Goldstein, A., Biostatistics: An Introductory Text, MacMillan, N.Y., 1964, pp. 156-161. Along with the I50 concentration for visual cytotoxicity, the averaged I50 concentrations are compared to I50 concentrations for inhibition for HCMV or HSV-1 replication. Compounds for which the ratio of cytotoxicity I50 concentrations to antiviral I50 concentrations (in vitro therapeutic index) were greater than 10, were considered for further study.

[2] = tested on: HSV-1; assay: HSV-1 plaque reduction assay, strain S148; type: cell-based, herpes simplex virus type 1 (strain S148) in BSC-1 cells; settings: for IC50: Human alphaherpesvirus 1, Table 1, strain S148, BSC-1 cells, read-out: 50% Inhibitory Concentration HSV-1 Plaque
Excerpt: as §1
HSV-1 was titered using monolayer cultures of BSC-1 cells. Cells were planted at 3×10^5 cells/well using 6-well cluster dishes. MEM(E) supplemented with 10% fetal bovine serum was employed as medium. After 22-24 hours, cells were 90% confluent and were inoculated in triplicate using at least three ten-fold dilutions with 0.2 ml of the virus suspension to be assayed and incubated in a humidified 4% CO2 […] atmosphere for one hour to permit viral adsorption. Following virus adsorption, the cell sheet was overlayed with 5 ml of MEM(E) with 5% serum plus 0.5% methocel (4000 CPS) and incubated an additional two to three days. Cells were fixed and stained with 0.1% crystal violet in 20% methanol and macroscopic plaques enumerated.
Plaque reduction experiments were HSV-1 were performed using monolayer cultures of BSC-1 cells. The assay was performed exactly as described above except that the 0.2 ml virus suspension contained approximately 100 p.f.u. of HSV-1. Compounds to be tested were dissolved in the overlay medium at concentrations usually ranging from 0.1 to 100 μM in half-or-one logarithm10 dilutions. Titer reduction assays were performed by planting KB cells in 25 cm^2 plastic tissue culture flasks 10 to 24 hours prior to infection. At the onset of experiments, logarithmically growing replicate monolayer cultures were 60 to 80% confluent and contained 2.5 to 4.5×10^6 cells/flask. Medium was decanted and the cultures were infected with 2 to 10 p.f.u. of HSV-1 per cell. Virus was contained in 1.0 ml of VGM supplemented with 5% fetal bovine serum. After a 1 hour adsorption period at […], the cell sheet was rinsed twice with 2 ml of VGM without serum to remove unadsorbed virus and 5 ml of VGM containing drugs at three to five selected concentrations added in duplicate. Following an 18- to 22-hour incubation at 37° C., infected monolayers were treated with EDTA-trypsin to suspend the cells; aliquots were removed, subjected to three cycles of freezing and thawing, and stored at -76° C. for subsequent virus assay. Virus was titered on BSC-1 cells as described above.
as §2

[3] = in vitro; type: cell-based, human; settings: human, kb cells
Procedure: KB or HFF cells were planted using a Costar Transplate-96 (Costar, Cambridge, Mass.) in Costar 96-well cluster dishes at a concentration of 10,000 to 12,000 cells per well. Wells were suspended in 200 μl of medium [MDM(H) plus 0.7 gm/liter NaCHO3 supplemented with 10% calf serum] per well. After incubation of 16 to 24 hours at 37° C. in a humidified atmosphere of 4% CO2 in air, […] of medium was removed per well. One-hundred μl of medium with or without compounds in twice their final concentrations was added to each well using a Titertek Multichannel Pipette. Final concentrations of compounds ranged from 0.1 to 320 μM. Fifty μl of medium containing radioactive precursors also was added to each well to give a final concentration to 1 to 3 μCi/ml of labeled precursor. [^3 H]Thd was diluted with unlabeled dThd to give a final concentration of 3 or 6 μM.
Logarithmic cell growth occurred during this time with continual uptake of labeled precursors. At the end of the incubation period, cells were individually harvested from each well using a Skatron Cell harvester (Skatronh, Inc., Sterling, Va.). Cultures for individual wells were harvested onto filter paper and washed free of unincorporated label with nine sequential washes with 5% trichloroacetic acid, nine washes with water, and nine with ethanol using the Skatron unit. Filters were dried, circles from individual cultures were punched from the filter mat and placed into mini-vials. Liquid scintillation solution was added, and radioactivity determined in a Beckman model LS8100 liquid scintillation spectrometer. All samples were counted for 2.0 minutes each, with three rounds of counting. Counts per minute were determined following the application of statistical methods to eliminate count rates which fell outside distribution limits defined by Chauvenet's rejection criterion.
All analyses were performed in triplicate. That is, three culture wells were used per time point, radioactive precursor, and drug concentration in all experiments. Results from triplicate assays were converted to percent of control and plotted as log dose-response curves from which 50% inhibitor (I50) concentrations were interpolated. Three concentrations of vidarabine were included on all plates as a positive control.
as §2

Nc1nc2c(ncn2COCCO)c(=O)[nH]1 [Acyclovir, reference compound]
IC90 [1]: 90 µM
IC50 [2]: 4 µM
CC50 [3]: > 100 µM

Nc1nc(O)c2ncn(COC(CO)CO)c2n1 [Ganciclovir (DHPG), reference compound]
IC90 [1]: 1.8 µM
IC50 [2]: 4.5 µM
CC50 [3]: 1000 µM

Nc1ncnc2c1c(Cl)cn2COCCO [UMJD 100, 4-Amino-5-chloro-7-(2-hydroxyethoxymethyl)pyrrolo[2,3-d]-pyrimidine]
IC90 [1]: 46 µM
activity against HSV-1 (in words) [2]: less potent activity
IC50 [2]: 77 µM
CC50 [3]: 350 µM

Nc1ncnc2c1c(Br)cn2COCCO [UMJD 102, 4-Amino-5-bromo-7-(2-hydroxyethoxymethyl)pyrrolo[2,3-d]-pyrimidine]
IC90 [1]: 13 µM
activity against HSV-1 (in words) [2]: less potent activity
IC50 [2]: 11 µM
CC50 [3]: 100 µM

Nc1ncnc2c1c(I)cn2COCCO [UMJD 104, 4-Amino-5-iodo-7-(2-hydroxyethoxymethyl)pyrrolo[2,3-d]-pyrimidine]
IC90 [1]: 14 µM
activity against HSV-1 (in words) [2]: less potent activity
IC50 [2]: 250 µM
CC50 [3]: 94 µM

Nc1ncnc2c1c(Br)cn2COC(CO)CO [UMJD 183, 4-amino-5-bromo-7-[(1,3-dihydroxy-2-propoxy)methyl]-pyrrolo[2,3-d]pyrimidine]
log reduction at 10 µM ([1]; FIG. 2, 10 μM): ~5
IC90 [1]: 1.9 µM
IC50 [2]: 2 µM
CC50 [3]: 25 µM

Nc1ncnc2c1c(Cl)cn2COC(CO)CO [UMJD 186, 4-amino-5-chloro-7-[(1,3-dihydroxy-2-propoxy)-methyl]pyrrolo[2,3-d]pyrimidine]
log reduction at 100 µM ([1]; FIG. 2, 10-fold higher concentration than UMJD 183 (10 μM)): 5
IC90 [1]: 8 µM
IC50 [2]: 16 µM
CC50 [3]: > 100 µM

OCC(CO)OCn1cc(Br)c2c(NO)ncnc21 [UMJD 299, 4-hydroxylamino-5-bromo-7-[(1,3-dihydroxy-2-propoxy)methyl]pyrrolo[2,3-d]pyrimidine]
IC90 [1]: 10 µM
IC50 [2]: 2.9 µM
CC50 [3]: 357 µM
